Reference: the supplement of paper PMC10627819

What was measured:
[1] = system: B. subtilis 168; experiment: Bliss interaction score (quartile over a dose matrix) (fitness difference); higher = more antagonism (negative = synergy)
Outline: (§1)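 OD595 was read at entry into stationary phase and expressed relative to the robust mean of the no-drug wells on the same plate, capped at 1. The resulting ratio is the fitness value. The Bliss score, observed fitness minus product-based expected fitness with single-drug fitness inferred from combinations, is summarised by quartiles over technical, biological and donor/recipient replicates.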

[2] = system: S. aureus Newman; experiment: as above
Outline: as §1

[3] = system: S. pneumoniae D39V; experiment: as above
Outline: as §1

[4] = system: S. aureus DSM 20231; experiment: as above
Outline: as §1

[5] = system: S. aureus Newman; experiment: fitness (endpoint OD595 vs no drug) (fraction); higher = more growth
Outline: (§2)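 Bacterial growth was followed in 384-well plates seeded at OD595 0.01, with 30 µl per well, or 55 µl for S. pneumoniae, in TSB, LB Lennox or CY at 37 °C. OD595 was read every 30 min for 14 h, and each reading had the first reading subtracted as background. Fitness is the background-corrected optical density at entry into stationary phase divided by the robust mean of the no-drug control wells. This ratio is capped at 1.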

[6] = system: S. pneumoniae D39V; experiment: as above
Outline: as §2

[7] = system: S. aureus DSM 20231; experiment: as above
Outline: as §2
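For Bliss interaction score (quartile over a dose matrix) in this document: first quartile when negative (synergy) and third quartile when positive (antagonism).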

CC1(C)S[C@@H]2[C@H](NC(=O)[C@H](N)c3ccc(O)cc3)C(=O)N2[C@H]1C(=O)O [Amoxicillin] + COc1cccc2c1C(=O)c1c(O)c3c(c(O)c1C2=O)C[C@@](O)(C(=O)CO)C[C@@H]3O[C@H]1C[C@H](N)[C@H](O)[C@H](C)O1 [Doxorubicin]
Conditions | Bliss interaction score
[1] | 0.0583
[2] | -0.0449
[3] | -0.071
[4] | 0.0943

Conditions | fitness
[5], first compound 0.0625 µg/mL, partner 0.625 µg/mL | 0.756
[5], first compound 0.0625 µg/mL, partner 1.25 µg/mL | 0.738
[5], first compound 0.0625 µg/mL, partner 2.5 µg/mL | 0.686
[5], first compound 0.125 µg/mL, partner 0.625 µg/mL | 0.774
[5], first compound 0.125 µg/mL, partner 1.25 µg/mL | 0.742
[5], first compound 0.125 µg/mL, partner 2.5 µg/mL | 0.79
[5], first compound 0.25 µg/mL, partner 0.625 µg/mL | 0.729
[5], first compound 0.25 µg/mL, partner 1.25 µg/mL | 0.735
[5], first compound 0.25 µg/mL, partner 2.5 µg/mL | 0.712
[6], first compound 0.0008 µg/mL, partner 0.25 µg/mL | 0.961
[6], first compound 0.0008 µg/mL, partner 0.5 µg/mL | 0.941
[6], first compound 0.0008 µg/mL, partner 1 µg/mL | 0.882
[6], first compound 0.0015 µg/mL, partner 0.25 µg/mL | 0.892
[6], first compound 0.0015 µg/mL, partner 0.5 µg/mL | 0.855
[6], first compound 0.0015 µg/mL, partner 1 µg/mL | 0.921
[6], first compound 0.003 µg/mL, partner 0.25 µg/mL | 0.838
[6], first compound 0.003 µg/mL, partner 0.5 µg/mL | 0.837
[6], first compound 0.003 µg/mL, partner 1 µg/mL | 0.788
[7], first compound 0.0625 µg/mL, partner 0.625 µg/mL | 0.541
[7], first compound 0.0625 µg/mL, partner 1.25 µg/mL | 0.511
[7], first compound 0.0625 µg/mL, partner 2.5 µg/mL | 0.493
[7], first compound 0.125 µg/mL, partner 0.625 µg/mL | 0.443
[7], first compound 0.125 µg/mL, partner 1.25 µg/mL | 0.423
[7], first compound 0.125 µg/mL, partner 2.5 µg/mL | 0.461
[7], first compound 0.25 µg/mL, partner 0.625 µg/mL | 0.187
[7], first compound 0.5 µg/mL, partner 0.625 µg/mL | 0.0064
[7], first compound 0.5 µg/mL, partner 1.25 µg/mL | 0
[7], first compound 0.5 µg/mL, partner 2.5 µg/mL | 0.012

[6], first compound 0.006 µg/mL, one replicate
Conditions | fitness
partner 0.25 µg/mL | 0.317
partner 0.5 µg/mL | 0.314
partner 1 µg/mL | 0.399

CC1(C)S[C@@H]2[C@H](NC(=O)[C@H](N)c3ccc(O)cc3)C(=O)N2[C@H]1C(=O)O [Amoxicillin] + Cc1onc(-c2ccccc2)c1C(=O)N[C@@H]1C(=O)N2[C@@H]1SC(C)(C)[C@@H]2C(=O)O [Oxacillin]
Conditions | Bliss interaction score
[1] | 0.031
[2] | 0.0431
[3] | -0.0929
[4] | 0.104

Conditions | fitness
[5], first compound 0.0625 µg/mL, partner 0.0156 µg/mL | 0.724
[5], first compound 0.0625 µg/mL, partner 0.0312 µg/mL | 0.651
[5], first compound 0.0625 µg/mL, partner 0.0625 µg/mL | 0.575
[5], first compound 0.125 µg/mL, partner 0.0156 µg/mL | 0.674
[5], first compound 0.125 µg/mL, partner 0.0625 µg/mL | 0.547
[5], first compound 0.25 µg/mL, partner 0.0156 µg/mL | 0.663
[6], first compound 0.0008 µg/mL, partner 0.01 µg/mL | 0.985
[6], first compound 0.0008 µg/mL, partner 0.02 µg/mL | 0.831
[6], first compound 0.0008 µg/mL, partner 0.04 µg/mL | 0.33
[6], first compound 0.0015 µg/mL, partner 0.005 µg/mL | ≥ 1
[6], first compound 0.0015 µg/mL, partner 0.01 µg/mL | 0.977
[6], first compound 0.0015 µg/mL, partner 0.02 µg/mL | 0.861
[6], first compound 0.0015 µg/mL, partner 0.04 µg/mL | 0.266
[6], first compound 0.003 µg/mL, partner 0.005 µg/mL | 0.957
[6], first compound 0.003 µg/mL, partner 0.01 µg/mL | 0.882
[6], first compound 0.003 µg/mL, partner 0.02 µg/mL | 0.825
[6], first compound 0.003 µg/mL, partner 0.04 µg/mL | 0.12
[7], first compound 0.0625 µg/mL, partner 0.0156 µg/mL | 0.52
[7], first compound 0.0625 µg/mL, partner 0.0312 µg/mL | 0.56
[7], first compound 0.0625 µg/mL, partner 0.0625 µg/mL | 0.459
[7], first compound 0.125 µg/mL, partner 0.0156 µg/mL | 0.342
[7], first compound 0.125 µg/mL, partner 0.0625 µg/mL | 0.263
[7], first compound 0.25 µg/mL, partner 0.0156 µg/mL | 0.107
[7], first compound 0.25 µg/mL, partner 0.0312 µg/mL | 0.0945
[7], first compound 0.25 µg/mL, partner 0.0625 µg/mL | 0.06
[7], first compound 0.5 µg/mL, partner 0.0156 µg/mL | 0.0188
[7], first compound 0.5 µg/mL, partner 0.0312 µg/mL | 0.0143
[7], first compound 0.5 µg/mL, partner 0.0625 µg/mL | 0.021

fitness, [6], one replicate
Conditions | partner 0.005 µg/mL | partner 0.01 µg/mL | partner 0.02 µg/mL
first compound 0.0008 µg/mL | ≥ 1 | – | –
first compound 0.006 µg/mL | 0.587 | 0.476 | 0.147
